{
  "source": "the OPERA property sets (Mansouri et al. 2018)",
  "data": [
    {"units": {"melting point": "°C", "boiling point": "°C"}, "values": [
      {"molecule": "CC(/C=C/C=C(\\C)C(=O)O)=C\\C=C\\C=C(C)\\C=C\\C=C(/C)C(=O)O", "melting point": 286},
      {"molecule": "CCOCCCl", "boiling point": 108},
      {"molecule": "CCNC(=O)C(=O)NCC", "melting point": 175},
      {"molecule": "ClC1=C(Cl)C2(Cl)C3C(Cl)C(Cl)CC3C1(Cl)C2(Cl)Cl", "note": "(stereo not drawn)", "log10 Henry constant (atm·m³/mol)": -3.53, "log10 Koc (L/kg)": 4.78, "log10 vapour pressure (mmHg)": -4.69, "melting point": 106, "ready biodegradability": "not readily biodegradable"},
      {"molecule": "CCCCN1CCCCC1", "boiling point": 176},
      {"molecule": "O=C(CN1CCN(Cc2ccc3c(c2)OCO3)CC1)N1c2ccccc2Sc2ccccc21", "melting point": 142},
      {"molecule": "O=C(O)C(F)(F)C(F)(F)C(F)(F)C(=O)O", "melting point": 80},
      {"molecule": "Cc1ccco1", "boiling point": 65, "log10 vapour pressure (mmHg)": 2.19, "melting point": -87.5},
      {"molecule": "Clc1ccc2c(c1)Oc1ccccc1O2", "log10 vapour pressure (mmHg)": -4.89, "melting point": 88},
      {"molecule": "OC1(c2ccccc2)CCCCC1", "melting point": 63.5},
      {"molecule": "Clc1ccc(Cl)nc1", "melting point": 60.5},
      {"molecule": "CCN(CC)C(=S)SSC(=S)N(CC)CC", "melting point": 71.5},
      {"molecule": "c1ccc(-c2ccc3ccccc3n2)cc1", "boiling point": 363, "melting point": 86},
      {"molecule": "Nc1ccc(C(=O)c2ccccc2)cc1", "melting point": 122},
      {"molecule": "C=Cc1scnc1C", "melting point": -15},
      {"molecule": "c1ccc2c(c1)c1ccccc1c1ccccc21", "boiling point": 425, "log10 biodegradation half-life (days)": 2.58, "log10 vapour pressure (mmHg)": -7.68, "melting point": 199},
      {"molecule": "CC(C)CSCC(C)C", "boiling point": 171, "melting point": -106},
      {"molecule": "COc1cc(O)cc(O)c1", "melting point": 80.3},
      {"molecule": "C=C1CC(=O)OC1=O", "melting point": 69},
      {"molecule": "CN(C)c1ccc(N=C2C=CC(=O)C=C2)cc1", "melting point": 134},
      {"molecule": "O=C(O)Cc1ccc(O)c(O)c1", "melting point": 128},
      {"molecule": "CC(C)Oc1ccc(C(=O)NS(=O)(=O)c2ccc(N)cc2)cc1", "melting point": 172},
      {"molecule": "C=Cc1ccc(C=C)cc1", "melting point": 31, "ready biodegradability": "not readily biodegradable"},
      {"molecule": "OCc1cccc(CO)c1", "melting point": 57},
      {"molecule": "CCCCCCCCCC(C)C=O", "note": "(stereo not drawn)", "boiling point": 171},
      {"molecule": "OCCN1CCCCC1", "boiling point": 202, "melting point": 17.9},
      {"molecule": "CCOC(=O)C1=NN(c2ccc(Cl)cc2Cl)C(C)(C(=O)OCC)C1", "note": "(stereo not drawn)", "log10 vapour pressure (mmHg)": -7.33, "melting point": 51},
      {"molecule": "CC(C)OC(=O)C(C(=O)OC(C)C)=C1SCCS1", "melting point": 54},
      {"molecule": "O=C(OCC(=O)N1CCOCC1)c1ccccc1", "melting point": 104},
      {"molecule": "COc1cc(O)c2c(=O)c(-c3ccc(O)cc3)coc2c1", "melting point": 240},
      {"molecule": "O=C(O)c1cc2ccccc2o1", "boiling point": 312, "melting point": 192},
      {"molecule": "Cc1ccc(N)c(N)c1", "boiling point": 265, "log10 vapour pressure (mmHg)": -3.2, "melting point": 89.5},
      {"molecule": "CC(=O)Oc1ccccc1OC(C)=O", "melting point": 64.5},
      {"molecule": "O=C(O)c1c(F)cccc1F", "melting point": 159},
      {"molecule": "CCC1(C2=CCCCC2)C(=O)NC(=O)NC1=O", "melting point": 173},
      {"molecule": "CCOC(=O)C(SP(=S)(OC)OC)c1ccccc1", "note": "(stereo not drawn)", "log10 Koc (L/kg)": 3, "log10 vapour pressure (mmHg)": -5.58, "melting point": 17.5, "ready biodegradability": "not readily biodegradable"},
      {"molecule": "CNc1ccc2oc(C[C@@H]3OC4(CC[C@@H]3C)O[C@H](C(C)C(=O)c3ccc[nH]3)[C@H](C)C[C@H]4C)nc2c1C(=O)O", "note": "(stereo partly drawn)", "melting point": 182},
      {"molecule": "COC1=CC(=O)O[C@@H](/C=C/c2ccccc2)C1", "melting point": 106},
      {"molecule": "COC(=O)C=Cc1ccccc1", "boiling point": 260, "log10 vapour pressure (mmHg)": -1.46, "melting point": 36},
      {"molecule": "CC1(C)CCCC(C)(C)N1", "boiling point": 156},
      {"molecule": "Cc1ccc(O)c(-n2n3c4ccccc4n23)c1", "ready biodegradability": "not readily biodegradable"},
      {"molecule": "CNc1ccccc1C", "boiling point": 208, "ready biodegradability": "not readily biodegradable"},
      {"molecule": "CCCCCCCCCCCCCCCCCCNC(=O)N1CC1", "ready biodegradability": "not readily biodegradable"},
      {"molecule": "COc1c(Cl)c(Cl)cc(Cl)c1Cl", "melting point": 88.5},
      {"molecule": "CNC(=O)ON=C(CSC)C(C)(C)C", "log10 vapour pressure (mmHg)": -3.77, "melting point": 57},
      {"molecule": "Oc1cc(Cl)c(Cl)cc1Cl", "boiling point": 247, "log10 Koc (L/kg)": 3.36, "log10 vapour pressure (mmHg)": -2.12, "melting point": 69, "ready biodegradability": "not readily biodegradable"},
      {"molecule": "Cc1cc(=O)oc2cc(O)ccc12", "melting point": 196},
      {"molecule": "ClC=C(Cl)Cl", "boiling point": 87.2, "log10 Henry constant (atm·m³/mol)": -2.01, "log10 Koa": 2.99, "log10 Koc (L/kg)": 2, "log10 vapour pressure (mmHg)": 1.84, "melting point": -84.7, "ready biodegradability": "not readily biodegradable"},
      {"molecule": "CC(=O)Br", "boiling point": 76, "log10 vapour pressure (mmHg)": 2.08, "melting point": -96},
      {"molecule": "Nc1cc(Cl)c(Cl)c(Cl)c1Cl", "log10 Koc (L/kg)": 3.03},
      {"molecule": "O=P(OC(CCl)CCl)(OC(CCl)CCl)OC(CCl)CCl", "melting point": 27, "ready biodegradability": "not readily biodegradable"},
      {"molecule": "CC(C)CCOC(=O)C(C)C", "boiling point": 168},
      {"molecule": "CCBr", "boiling point": 38.5, "log10 Koa": 2.11, "log10 vapour pressure (mmHg)": 2.67, "melting point": -119, "ready biodegradability": "not readily biodegradable"},
      {"molecule": "c1ccc2nncnc2c1", "boiling point": 238, "melting point": 75.8},
      {"molecule": "CC(C)(CCl)c1ccccc1", "boiling point": 223},
      {"molecule": "OCC(F)(F)C(F)F", "boiling point": 110, "log10 Henry constant (atm·m³/mol)": -5.2, "log10 vapour pressure (mmHg)": 1.17, "melting point": -15},
      {"molecule": "COC(=O)c1ccc(OC)cc1", "boiling point": 256, "melting point": 49},
      {"molecule": "CCC(Br)C(C)Br", "note": "(stereo not drawn)", "boiling point": 178, "melting point": -56},
      {"molecule": "CCCCCCC(O)CCCCC", "note": "(stereo not drawn)", "boiling point": 225, "melting point": 30},
      {"molecule": "OCC(F)(F)C(F)(F)C(F)(F)C(F)F", "boiling point": 140},
      {"molecule": "CC1CCCCS1", "note": "(stereo not drawn)", "boiling point": 153, "melting point": -58},
      {"molecule": "CCCCCCCCCCCCOC(=O)CCSCCC(=O)OCCCCCCCCCCCC", "melting point": 41, "ready biodegradability": "readily biodegradable"},
      {"molecule": "N#Cc1ccc(C#N)cc1", "melting point": 224, "ready biodegradability": "not readily biodegradable"},
      {"molecule": "Cc1nccc2c1[nH]c1ccccc12", "melting point": 236},
      {"molecule": "CC(=O)OC[C@]12C[C@H](OC(=O)CC(C)C)C(C)=C[C@H]1O[C@@H]1[C@H](O)[C@@H](OC(C)=O)[C@@]2(C)[C@]12CO2", "melting point": 152},
      {"molecule": "CSC#N", "boiling point": 133, "log10 vapour pressure (mmHg)": 1.08, "melting point": -5},
      {"molecule": "N#Cc1c(Cl)c(Cl)c(Cl)c(Cl)c1C#N", "ready biodegradability": "not readily biodegradable"},
      {"molecule": "O=[N+]([O-])c1cc(F)cc(F)c1", "boiling point": 176, "melting point": 17},
      {"molecule": "CCC[C@](C)(O)CC", "boiling point": 143, "log10 vapour pressure (mmHg)": 0.291},
      {"molecule": "Cc1c(Cl)c(Cl)c(Cl)c(Cl)c1Cl", "boiling point": 301, "log10 Henry constant (atm·m³/mol)": -3.11, "melting point": 225}
    ]}
  ]
}
